In US6184217A (Cephalon, Inc., priority 1997, dated 2001):

Key:
protein kinase C = assay: Protein kinase C inhibition in vitro; format: biochemical
[1] = system: glutamatergic neurons in layer 2 of the entorhinal cortex; assay: NMDA entorhinal cortex lesion model; format: in vivo, rats; conditions: 1 mg/kg s.c. daily, p<0.05
Excerpt: Glutamate-containing neurons in layer 2 of the entorhinal cortex project to the molecular layer of the dentate gyrus, where they form synapses on the dendrites of the dentate gyrus granule cells. A lesion can be created in layer 2 of entorhinal cortex by stereotaxic injection of the excitotoxin N-methyl-D-asparate (NMDA). Under sodium pentobarbitol anesthesia, rats received an injection of NMDA (15 nmols/site) at each of 2 sites in the entorhinal cortex. Two weeks later, the rats were sacrificed and perfused with a 50 mM sodium sulfide solution. The brains were removed, sectioned in the horizontal plane at a thickness of 40 μm, and stained with either Cresyl violet or Timm'stain. The survival of neurons in layer 2 of entorhinal cortex was assessed in Cresyl violet stained sections, while the integrity of their axon terminals in the molecular layer of the dentate gyrus was measured in alternate sections stained with Timm's stain.
Injection of NMDA destroyed 62±11% (s.e.m.) of entorhinal layer 2 and decreased the area of the dentate gyrus middle molecular layer by 19±6% (s.e.m.). […] Thus, Compound A protected neurons in the entorhinal cortex from an excitotoxic lesion and maintained the integrity of their axon terminals in the dentate gyrus.

LPS-induced death = assay: Prevention of LPS-induced death in mice; format: in vivo; conditions: 30 mg/kg ip 2 h before LPS (2 mg/mouse)
Method: Forty mice were divided into three groups, two groups consisting of ten mice and one group of twenty mice. Administrations of vehicles, LPS, and Compound A were intraperitoneal. Group 1 (n=10) mice received vehicle (phosphate buffered saline for LPS, 200 μl/mouse) at time zero and vehicle for Compound A (200 μl/mouse) 2 hours later. Group 2 (n=10) mice received the vehicle for Compound A at zero time (200 μl/mouse) and LPS (2 mg in 200 μl/mouse) for two hours later. Group 3 (n=20) received Compound A (30 mg/kg in 200 μl of vehicle) at time zero and LPS (2 mg in 200 μl/mouse) two hours later.

nbm neurons = assay: Ibotenic acid lesion: Fluoro-Gold-labeled nbm neurons; format: in vivo, Sprague-Dawley rats; conditions: 0.03 mg/kg s.c. every other day until 18 days post-lesion
Excerpt: To test directly the ability of Compound A to prevent excitotoxic neuron death, nbm neurons in adult male Sprague-Dawley rats were first labeled with a long-lasting marker. This was done by injecting Fluoro-Gold (FG), a neuronal tracer that is taken up by nerve terminals and transported back to the cell body (Book et al., J. Neuropath. Exp. Neurology, 53:95-102, 1994), into target regions of nbm neurons in the frontal and parietal cortex. 7-10 days later the animals received lesion of the nbm unilaterally, using 5 μg of ibotenic acid. Beginning 18 hours after this lesion, the animals received Compound A (0.03 mg/kg) via subcutaneous injection, every other day until 18 days post-lesion. Tissue sections were collected throughout the entire rostral-caudal extent of the nbm on both sides of the brain, and numbers of nbm neurons with the FG label were counted. The counts were corrected for size differences using standard procedures, and the results expressed as the percent of labeled neurons in the nbm on the lesioned side of each animal relative to the number of labeled neurons in the nbm on the opposite unlesioned side of the brain.

[2] = system: nucleus basalis magnocellularis; assay: T-maze rewarded alternation task after bilateral nbm lesion; format: in vivo, Sprague-Dawley rats; conditions: 0.1 mg/kg s.c. every other day until 12 days post-lesion; tested 10-12 weeks later
Method: Adult male Sprague-Dawley rats were first trained to alternate responses in a standard rewarded-alternation T-maze task (Hepler et al., J. Neurosci., 5:866-873, 1985). The animals then received bilateral lesions of the nucleus basalis magnocellularis, to impair performance in T-maze tasks (e.g., Salamone et al., Behav. Brain Res., 13:63-70, 1984). Beginning 18 hours after the lesion, the animals received Compound A via subcutaneous injection (0.1 mg/kg) every other day until 12 days post-lesion. Twenty-four hours following the last injection all animals were placed in the T-maze once a day, until their alternation performance reached pre-operative levels, which took anywhere from 3 to 10 days. After reaching criterion, the animals were not further tested for 8-10 weeks. At that point the animals were again placed in the T-maze, once a day until they reached pre-operative performance.

monoamine oxidase-B = monoamine oxidase-B (Homo sapiens, UniProt P27338); assay: Monoamine oxidase-B inhibition in vitro; conditions: FIG. 2
[3] = system: striatal tyrosine hydroxylase (dopaminergic neurons); assay: Striatal tyrosine hydroxylase activity in low-dose MPTP-treated mice; format: in vivo, C57 black mice; conditions: MPTP 20 mg/kg, 7 days
Method: Experiments were conducted using Compound A in MPTP-lesioned dopaminergic neurons in mice (MPTP mouse model). A single s.c. dose of MPTP (20 mg/kg) provided to C57 black mice produced approximately 60% loss of striatal tyrosine hydroxylase activity. Administration of Compound A, at daily doses ranging from 0.01 to 10 mg/kg (s.c.), to such MPTP-treated mice reduced the loss of striatal tyrosine hydroxylase activity.
Mice were treated with MPTP (20 mg/kg; s.c.) 4-6 hours after the first Compound A injection. Compound A was then injected every day until the end of the experiment, which was 7 days in duration. Striata were assessed for tyrosine hydroxylase enzyme activity. Asterisk indicates statistically significant difference (p<0.05) from MPTP-Vehicle treated animals.

monoamine oxidase-A = monoamine oxidase-A (Homo sapiens, UniProt P21397); assay: Monoamine oxidase-A inhibition in vitro; format: biochemical; conditions: FIG. 1
[4] = system: uptake of catecholamines into nerve endings; assay: Uptake of catecholamines into nerve endings; format: biochemical

Sequence of monoamine oxidase-A (P21397 whole entry): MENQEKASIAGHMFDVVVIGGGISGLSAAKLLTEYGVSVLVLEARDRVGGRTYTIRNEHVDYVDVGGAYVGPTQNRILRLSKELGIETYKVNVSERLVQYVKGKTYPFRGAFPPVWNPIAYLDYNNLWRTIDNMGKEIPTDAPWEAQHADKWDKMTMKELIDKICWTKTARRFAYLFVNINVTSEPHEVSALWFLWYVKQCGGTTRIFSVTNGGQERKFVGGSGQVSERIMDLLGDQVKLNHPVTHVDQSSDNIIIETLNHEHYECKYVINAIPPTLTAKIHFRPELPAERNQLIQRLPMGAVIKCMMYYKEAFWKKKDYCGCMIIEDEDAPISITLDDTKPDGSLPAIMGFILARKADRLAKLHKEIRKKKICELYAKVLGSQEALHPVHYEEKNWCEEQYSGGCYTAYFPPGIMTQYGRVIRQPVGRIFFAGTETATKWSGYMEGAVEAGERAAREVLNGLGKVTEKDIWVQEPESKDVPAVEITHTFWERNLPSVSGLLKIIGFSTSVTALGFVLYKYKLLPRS
Sequence of monoamine oxidase-B (P27338 whole entry): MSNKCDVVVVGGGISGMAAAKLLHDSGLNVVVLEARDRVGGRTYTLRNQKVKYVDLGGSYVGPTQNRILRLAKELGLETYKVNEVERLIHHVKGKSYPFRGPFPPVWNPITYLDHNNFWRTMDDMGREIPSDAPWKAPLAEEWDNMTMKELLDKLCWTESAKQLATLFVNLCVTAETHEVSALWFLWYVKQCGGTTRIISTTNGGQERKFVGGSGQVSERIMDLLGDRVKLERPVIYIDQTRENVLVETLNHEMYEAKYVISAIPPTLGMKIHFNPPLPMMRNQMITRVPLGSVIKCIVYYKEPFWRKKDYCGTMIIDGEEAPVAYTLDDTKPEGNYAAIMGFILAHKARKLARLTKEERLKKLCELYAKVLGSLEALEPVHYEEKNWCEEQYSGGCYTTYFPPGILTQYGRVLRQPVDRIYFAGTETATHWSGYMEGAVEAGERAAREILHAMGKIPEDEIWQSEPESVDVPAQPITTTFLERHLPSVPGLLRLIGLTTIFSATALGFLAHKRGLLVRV

## CCSCc1ccc2c(c1)c1c3c(c4c5cc(CSCC)ccc5n5c4c1n2C1CC(O)(C(=O)OC)C5(C)O1)CNC3=O (centres unmarked) [Compound A]
Protein kinase C; at 139 nM and 261 nM
  protein kinase C inhibition at concentrations inhibiting TNF-α and IL-1β production: inactive
Protein kinase C; compared with K-252a
  fold less active than K-252a against protein kinase C: 570 fold
Protein kinase C; in vitro
  IC50: 16 µM
Protein kinase C; summary statement
  inhibitory activity against PKC: little or no inhibitory activity against PKC
[1]; NMDA alone 19±6% decrease
  decrease in area of dentate gyrus middle molecular layer: prevented the decrease in area of the middle molecular layer
[1]; s.e.m., NMDA alone 62±11%
  loss of entorhinal layer 2 neurons: 22±10%
LPS-induced death
  mortality one week after LPS: 80%
LPS-induced death; LPS alone 90% within 20 hours
  mortality at 20 hours after LPS: 25%
LPS-induced death; LPS alone 100% by 42 hours
  mortality at 42 hours after LPS: 75%
Nbm neurons
  effect on FG-labeled neurons at mid-lesion and caudal to the lesion: declining effect
Nbm neurons; over 400 μm from midpoint of lesion, P<0.05 (FIG. 3)
  Fluoro-Gold-labeled neurons in rostral portion of lesioned nbm vs vehicle only: significantly more FG-labeled neurons
[2]
  total number of errors in T-maze task compared to normals: not different from normals
Monoamine oxidase-B
  monoamine oxidase-B inhibition: not a monoamine oxidase-B inhibitor
[3]; 0.01 mg/kg s.c. daily
  % of Unlesioned Control: 41 ± 5.3%
  Striatal TH Activity (± SEM): 7.76 ± 1.23
[3]; 0.03 mg/kg s.c. daily
  % of Unlesioned Control: 55 ± 3.9%
  Striatal TH Activity (± SEM): 10.48 ± 0.92
[3]; 0.10 mg/kg s.c. daily
  % of Unlesioned Control: 60 ± 6.5%
  Striatal TH Activity (± SEM): 11.51 ± 0.80
[3]; 0.30 mg/kg s.c. daily
  % of Unlesioned Control: 62 ± 5.0%
  Striatal TH Activity (± SEM): 11.89 ± 1.34
[3]; 1.0 mg/kg s.c. daily
  % of Unlesioned Control: 54 ± 7.0%
  Striatal TH Activity (± SEM): 10.39 ± 1.39
[3]; 3.0 mg/kg s.c. daily
  % of Unlesioned Control: 51 ± 5.8%
  Striatal TH Activity (± SEM): 9.66 ± 1.10
[3]; 10.0 mg/kg s.c. daily
  % of Unlesioned Control: 51 ± 3.7%
  Striatal TH Activity (± SEM): 9.77 ± 0.70
Monoamine oxidase-A
  monoamine oxidase-A inhibition: not a monoamine oxidase-A inhibitor
[4]
  block of uptake of catecholamines into nerve endings: found not to inhibit monoamine oxidase A or B in vitro (FIGS. 1 and 2) or block uptake of catecholamines into nerve endings
